Measured values published in patent US8288428B2, “Compounds as cannabinoid receptor ligands” (Abbott Laboratories, priority 2009, dated 2012).
Where two headings read alike, the source gives them in different places.

What was measured:
[1] = target: T1, human CB2 receptors (Homo sapiens, UniProt P34972); assay: human CB2 radioligand binding assay
T1 construct: expressed in transfected cells; membrane preparation
Method: (§1) (i) In Vitro Methods—CB2 and CB1 Radioligand Binding Assays:
(§2) The CB1 and CB2 radioligand binding assays described herein are utilized to ascertain the selectivity of compounds of the present application for binding to CB2 relative to CB1 receptors.
(§3) HEK293 cells stably expressing human CB2 receptors were grown until a confluent monolayer was formed. Briefly, the cells were harvested and homogenized in TE buffer (50 mM Tris-HCl, 1 mM MgCl2, and 1 mM EDTA) using a polytron for 2×10 second bursts in the presence of protease inhibitors, followed by centrifugation at 45,000×g for 20 minutes. The final membrane pellet was re-homogenized in storage buffer (50 mM Tris-HCl, 1 mM MgCl2, and 1 mM EDTA and 10% sucrose) and frozen at −78° C. until used. Saturation binding reactions were initiated by the addition of membrane preparation (protein concentration of 5 μg/well for human CB2) into wells of a deep well plate containing [^3H]CP-55,940 (120 Ci/mmol, a nonselective CB agonist commercially available from Tocris) in assay buffer (50 mM Tris, 2.5 mM EDTA, 5 mM MgCl2, and 0.5 mg/mL fatty acid free BSA, pH 7.4). After 90 min incubation at 30° C., binding reaction was terminated by the addition of 300 μL/well of cold assay buffer followed by rapid vacuum filtration through a UniFilter-96 GF/C filter plates (pre-soaked in 1 mg/mL BSA for 2 hours). The bound activity was counted in a TopCount using Microscint-20. Saturation experiments were conducted with twelve concentrations of [^3H]CP-55,940 ranging from 0.01 to 8 nM. Competition experiments were conducted with 0.5 nM [^3H]CP-55,940 and five concentrations (0.01 nM to 10 μM) of displacing ligands. The addition of 10 μM unlabeled CP-55,940 (Tocris, Ellisville, Mo.) was used to assess nonspecific binding.

[2] = target: T2, rat CB2 receptors (Rattus norvegicus, UniProt Q9QZN9); assay: rat CB2 radioligand binding assay
T2 construct: expressed in transfected cells; membrane preparation
T2 sequence (Q9QZN9 1-360): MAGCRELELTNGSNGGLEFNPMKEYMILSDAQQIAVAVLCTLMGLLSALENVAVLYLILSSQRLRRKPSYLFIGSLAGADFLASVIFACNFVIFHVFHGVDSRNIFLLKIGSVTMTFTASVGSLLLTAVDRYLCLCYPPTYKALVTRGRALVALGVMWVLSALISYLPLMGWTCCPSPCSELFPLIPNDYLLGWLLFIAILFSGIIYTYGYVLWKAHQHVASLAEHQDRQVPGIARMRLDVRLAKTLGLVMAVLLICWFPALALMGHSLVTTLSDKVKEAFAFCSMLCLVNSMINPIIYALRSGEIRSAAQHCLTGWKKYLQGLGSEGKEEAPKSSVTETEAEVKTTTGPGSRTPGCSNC
Method: as §1, §2
as §3, with “expressing rat” for “expressing human”, “of 20” for “of 5”, “for rat” for “for human”, “After 45” for “After 90”, “concentrations of displacing ligands selected from the range of 0.01” for “concentrations (0.01”, “10 μM.” for “10 μM) of displacing ligands.”

[3] = competition with 0.5 nM [3H]CP-55,940, HEK293 membranes expressing human CB2, read-out: human CB2 binding (Ki)
[4] = competition with 0.5 nM [3H]CP-55,940, HEK293 membranes expressing rat CB2, read-out: rat CB2 binding (Ki)

T1 sequence (P34972 whole entry): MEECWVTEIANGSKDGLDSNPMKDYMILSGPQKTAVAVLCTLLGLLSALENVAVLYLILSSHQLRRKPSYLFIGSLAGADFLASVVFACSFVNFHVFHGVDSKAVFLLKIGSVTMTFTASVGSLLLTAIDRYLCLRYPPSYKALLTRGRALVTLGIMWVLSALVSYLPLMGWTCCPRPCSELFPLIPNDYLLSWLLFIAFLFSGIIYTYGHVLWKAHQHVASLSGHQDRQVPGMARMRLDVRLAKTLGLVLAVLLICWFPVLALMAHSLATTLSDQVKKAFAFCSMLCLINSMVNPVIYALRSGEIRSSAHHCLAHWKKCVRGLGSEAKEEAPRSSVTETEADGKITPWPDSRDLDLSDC

Row | SMILES | Ki [1, 3] [nM] | Ki [2, 4] [nM] | Ki [1] [nM] | Ki [2] [nM]
1 | CCCCn1/c(=N/C(=O)c2cc(C(F)(F)F)ccc2CCC(C)(C)O)cc(C(C)(C)C)n1C [Example 1, N-[(3E)-2-butyl-5-tert-butyl-1-methyl-1,2-dihydro-3H-pyrazol-3-ylidene]-2-(3-hydroxy-3-methylbutyl)-5-(trifluoromethyl)benzamide] | 133 | 102 | – | –
2 | CCCCCn1/c(=N/C(=O)c2cc(C(F)(F)F)ccc2CCC(C)(C)O)cc(C(C)(C)C)n1C [Example 2, N-[(3E)-5-tert-butyl-1-methyl-2-pentyl-1,2-dihydro-3H-pyrazol-3-ylidene]-2-(3-hydroxy-3-methylbutyl)-5-(trifluoromethyl)benzamide] | – | – | 32.2 | 25
3 | Cn1c(C(C)(C)C)c/c(=N\C(=O)c2cc(C(F)(F)F)ccc2/C=C/C(C)(C)O)n1CC1CC1 [Example 3, N-[(3E)-5-tert-butyl-2-(cyclopropylmethyl)-1-methyl-1,2-dihydro-3H-pyrazol-3-ylidene]-2-[(1E)-3-hydroxy-3-methylbut-1-enyl]-5-(trifluoromethyl)benzamide] | – | – | 41.7 | 37.2
4 | Cn1c(C(C)(C)C)c/c(=N\C(=O)c2cc(C(F)(F)F)ccc2CCC(C)(C)O)n1CC1CC1 [Example 4, N-[(3E)-5-tert-butyl-2-(cyclopropylmethyl)-1-methyl-1,2-dihydro-3H-pyrazol-3-ylidene]-2-(3-hydroxy-3-methylbutyl)-5-(trifluoromethyl)benzamide] | – | – | 151 | 121
5 | CCCn1/c(=N/C(=O)c2cc(C(F)(F)F)ccc2/C=C/C(C)(C)O)cc(C(C)(C)C)n1C [Example 5, N-[(3E)-5-tert-butyl-1-methyl-2-propyl-1,2-dihydro-3H-pyrazol-3-ylidene]-2-[(1E)-3-hydroxy-3-methylbut-1-enyl]-5-(trifluoromethyl)benzamide] | – | – | 277 | 89.6
6 | Cn1c(C(C)(C)C)c/c(=N\C(=O)c2cc(C(F)(F)F)ccc2/C=C/C(C)(C)O)n1CC1CCC1 [Example 6, N-[(3E)-5-tert-butyl-2-(cyclobutylmethyl)-1-methyl-1,2-dihydro-3H-pyrazol-3-ylidene]-2-[(1E)-3-hydroxy-3-methylbut-1-enyl]-5-(trifluoromethyl)benzamide] | – | – | 10.9 | 3.29
7 | Cn1c(C(C)(C)C)c/c(=N\C(=O)c2cc(C(F)(F)F)ccc2CCC(C)(C)O)n1CC1CCC1 [Example 7, N-[(3E)-5-tert-butyl-2-(cyclobutylmethyl)-1-methyl-1,2-dihydro-3H-pyrazol-3-ylidene]-2-(3-hydroxy-3-methylbutyl)-5-(trifluoromethyl)benzamide] | – | – | 20.8 | 17.2
8 | Cn1c(C(C)(C)C)c/c(=N\C(=O)c2cc(C(F)(F)F)ccc2CN2CC(O)C2)n1CC1CC1 [Example 9, N-[(3E)-5-tert-butyl-2-(cyclopropylmethyl)-1-methyl-1,2-dihydro-3H-pyrazol-3-ylidene]-2-[(3-hydroxyazetidin-1-yl)methyl]-5-(trifluoromethyl)benzamide] | – | – | 30.1 | 24.8
9 | Cn1c(C(C)(C)C)c/c(=N\C(=O)c2cc(C(F)(F)F)ccc2CN2CC(C)(O)C2)n1CC1CC1 [Example 10, N-[(3E)-5-tert-butyl-2-(cyclopropylmethyl)-1-methyl-1,2-dihydro-3H-pyrazol-3-ylidene]-2-[(3-hydroxy-3-methylazetidin-1-yl)methyl]-5-(trifluoromethyl)benzamide] | – | – | 186 | 108
10 | CCCCn1/c(=N/C(=O)c2cc(C(F)(F)F)ccc2CCC(=O)OCC)cc(C(C)(C)C)n1C [Example 11, ethyl 3-[2-({[(3E)-2-butyl-5-tert-butyl-1-methyl-1,2-dihydro-3H-pyrazol-3-ylidene]amino}carbonyl)-4-(trifluoromethyl)phenyl]propanoate] | – | – | 53.3 | 32.5
11 | CCCCn1/c(=N/C(=O)c2cc(C(F)(F)F)ccc2CN2CC(C)(O)C2)cc(C(C)(C)C)n1C [Example 12, N-[(3E)-2-butyl-5-tert-butyl-1-methyl-1,2-dihydro-3H-pyrazol-3-ylidene]-2-[(3-hydroxy-3-methylazetidin-1-yl)methyl]-5-(trifluoromethyl)benzamide] | 142 | 177 | – | –
12 | CCCCn1/c(=N/C(=O)c2cc(C(F)(F)F)ccc2CN2CC[C@@H](O)C2)cc(C(C)(C)C)n1C [Example 13, N-[(3E)-2-butyl-5-tert-butyl-1-methyl-1,2-dihydro-3H-pyrazol-3-ylidene]-2-{[(3R)-3-hydroxypyrrolidin-1-yl]methyl}-5-(trifluoromethyl)benzamide] | – | 453 | – | –
13 | COCCCn1/c(=N/C(=O)c2cc(C(F)(F)F)ccc2/C=C/C(C)(C)O)cc(C(C)(C)C)n1C [Example 14, N-[(3E)-5-tert-butyl-2-(3-methoxypropyl)-1-methyl-1,2-dihydro-3H-pyrazol-3-ylidene]-2-[(1E)-3-hydroxy-3-methylbut-1-enyl]-5-(trifluoromethyl)benzamide] | 111 | – | – | 30.6
14 | COCCCn1/c(=N/C(=O)c2cc(C(F)(F)F)ccc2CCC(C)(C)O)cc(C(C)(C)C)n1C [Example 15, N-[(3E)-5-tert-butyl-2-(3-methoxypropyl)-1-methyl-1,2-dihydro-3H-pyrazol-3-ylidene]-2-(3-hydroxy-3-methylbutyl)-5-(trifluoromethyl)benzamide] | – | 220 | – | –
15 | CCCCn1nc(C(C)(C)C)s/c1=N\C(=O)c1cc(C(F)(F)F)ccc1CN1CC(O)C1 [Example 16, N-[(2Z)-3-butyl-5-tert-butyl-1,3,4-thiadiazol-2(3H)-ylidene]-2-[(3-hydroxyazetidin-1-yl)methyl]-5-(trifluoromethyl)benzamide] | – | – | 1.63 | 0.8
16 | CCCCn1nc(C(C)(C)C)s/c1=N\C(=O)c1cc(C(F)(F)F)ccc1CN1CC(C)(O)C1 [Example 17, N-[(2Z)-3-butyl-5-tert-butyl-1,3,4-thiadiazol-2(3H)-ylidene]-2-[(3-hydroxy-3-methylazetidin-1-yl)methyl]-5-(trifluoromethyl)benzamide] | – | – | 5.9 | 1.45
17 | CCCCn1nc(C(C)(C)C)s/c1=N\C(=O)c1cc(C(F)(F)F)ccc1CN1CC[C@H](O)C1 [Example 18, N-[(2Z)-3-butyl-5-tert-butyl-1,3,4-thiadiazol-2(3H)-ylidene]-2-{[(3S)-3-hydroxypyrrolidin-1-yl]methyl}-5-(trifluoromethyl)benzamide] | – | – | 14.9 | 1.59
18 | CCCCn1nc(C(C)(C)C)s/c1=N\C(=O)c1cc(C(F)(F)F)ccc1CN1CC[C@@H](O)C1 [Example 19, N-[(2Z)-3-butyl-5-tert-butyl-1,3,4-thiadiazol-2(3H)-ylidene]-2-{[(3R)-3-hydroxypyrrolidin-1-yl]methyl}-5-(trifluoromethyl)benzamide] | – | – | 15.3 | 3.85
19 | CCCCn1nc(C(C)(C)C)s/c1=N\C(=O)c1cc(C(F)(F)F)ccc1CO [Example 20, N-[(2Z)-3-butyl-5-tert-butyl-1,3,4-thiadiazol-2(3H)-ylidene]-2-(hydroxymethyl)-5-(trifluoromethyl)benzamide] | – | – | 1.89 | 0.57
